Test results from ChEMBL document CHEMBL4028801, “A multifactorial approach to hepatobiliary transporter assessment enables improved therapeutic compound development” (Toxicol Sci, 2013).
pIC50: −log10 of the molar value.

Legend:
[1] = Ratio of drug concentration at steady state in human at 20 to 80 mg, po QD after 24 hrs to IC50 for human BSEP overexpressed in Sf9 insect cells; assay type: ADME, organism-based; settings: in vivo
[2] = Ratio of drug concentration at steady state in human at 20 to 80 mg, po QD after 24 hrs to IC50 for human MRP3 overexpressed in Sf9 insect cells; assay type: ADME, organism-based; settings: in vivo
[3] = Ratio of drug concentration at steady state in human at 20 to 80 mg, po QD after 24 hrs to IC50 for human MRP4 overexpressed in Sf9 insect cells; assay type: ADME, organism-based; settings: in vivo
[4] = target: ATP-binding cassette sub-family C member 3 (Homo sapiens, UniProt O15438); assay: Inhibition of human MRP3 overexpressed in Sf9 insect cell membrane vesicles assessed as uptake of [3H]-estradiol-17beta-D-glucuronide in presence of ATP and GSH measured after 10 mins by membrane vesicle transport assay; assay type: ADME, cell-based
[5] = target: ATP-binding cassette sub-family C member 2 (Homo sapiens, UniProt Q92887); assay: Inhibition of human MRP2 overexpressed in Sf9 cell membrane vesicles assessed as uptake of [3H]-estradiol-17beta-D-glucuronide in presence of ATP and GSH measured after 20 mins by membrane vesicle transport assay
[6] = Drug concentration at steady state in human at 20 to 80 mg, po QD after 24 hrs; assay type: ADME, organism-based; settings: in vivo, read-out: Css
[7] = AUC in human at 20 to 80 mg, po QD after 24 hrs; assay type: ADME, organism-based; settings: in vivo
[8] = target: T1, ATP-binding cassette sub-family C member 4 (Homo sapiens, UniProt O15439); assay: Inhibition of human MRP4 overexpressed in Sf9 cell membrane vesicles assessed as uptake of [3H]-estradiol-17beta-D-glucuronide in presence of ATP and GSH measured after 20 mins by membrane vesicle transport assay; assay type: ADME, cell-based
T1 sequence (O15439 whole entry): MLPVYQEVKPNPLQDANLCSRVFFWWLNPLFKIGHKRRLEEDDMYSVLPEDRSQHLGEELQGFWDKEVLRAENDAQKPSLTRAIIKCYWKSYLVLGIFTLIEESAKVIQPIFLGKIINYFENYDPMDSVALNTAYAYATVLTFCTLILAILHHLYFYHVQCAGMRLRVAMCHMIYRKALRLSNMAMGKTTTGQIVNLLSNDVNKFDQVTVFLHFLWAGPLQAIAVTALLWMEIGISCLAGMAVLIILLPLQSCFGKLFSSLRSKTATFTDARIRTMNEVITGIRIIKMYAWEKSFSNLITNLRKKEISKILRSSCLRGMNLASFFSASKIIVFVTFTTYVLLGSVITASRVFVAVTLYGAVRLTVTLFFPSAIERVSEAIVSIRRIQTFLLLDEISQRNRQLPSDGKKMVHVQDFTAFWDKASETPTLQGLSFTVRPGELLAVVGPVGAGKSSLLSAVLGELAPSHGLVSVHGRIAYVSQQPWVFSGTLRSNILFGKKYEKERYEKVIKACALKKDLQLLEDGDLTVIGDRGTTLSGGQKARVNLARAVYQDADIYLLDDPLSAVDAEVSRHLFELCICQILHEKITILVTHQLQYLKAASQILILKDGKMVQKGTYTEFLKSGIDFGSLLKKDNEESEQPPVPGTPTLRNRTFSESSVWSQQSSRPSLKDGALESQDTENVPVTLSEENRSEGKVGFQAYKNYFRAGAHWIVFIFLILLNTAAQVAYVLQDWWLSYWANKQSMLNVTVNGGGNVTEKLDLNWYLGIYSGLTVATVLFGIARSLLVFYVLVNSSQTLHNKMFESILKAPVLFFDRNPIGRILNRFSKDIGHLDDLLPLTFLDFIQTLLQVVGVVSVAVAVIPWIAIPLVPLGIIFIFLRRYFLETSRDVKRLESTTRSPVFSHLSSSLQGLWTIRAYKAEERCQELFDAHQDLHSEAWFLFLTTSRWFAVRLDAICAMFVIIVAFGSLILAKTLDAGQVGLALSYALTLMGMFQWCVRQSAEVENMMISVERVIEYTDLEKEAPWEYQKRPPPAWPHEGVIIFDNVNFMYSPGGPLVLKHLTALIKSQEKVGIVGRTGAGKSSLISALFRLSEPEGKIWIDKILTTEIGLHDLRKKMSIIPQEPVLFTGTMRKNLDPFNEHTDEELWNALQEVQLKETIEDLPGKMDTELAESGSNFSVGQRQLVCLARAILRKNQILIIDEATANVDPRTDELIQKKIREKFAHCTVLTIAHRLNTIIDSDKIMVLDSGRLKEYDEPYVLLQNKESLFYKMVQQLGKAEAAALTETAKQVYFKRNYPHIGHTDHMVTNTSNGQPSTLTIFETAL

[9] = Ratio of drug concentration at steady state in patient with advanced phase CML and Ph+ ALL at 100 mg, po BID after 12 hrs to IC50 for human BSEP overexpressed in Sf9 insect cells; assay type: ADME, organism-based; settings: in vivo
[10] = Drug concentration at steady state in patient with chronic phase CML at 70 to 90 mg, po BID after 12 hrs; assay type: ADME, organism-based; settings: human, in vivo, read-out: Css
[11] = AUC in patient with advanced phase CML and Ph+ ALL at 100 mg, po BID after 12 hrs; assay type: ADME, organism-based; parameters: dose 100 mg, time < 12 hr, route oral; settings: human, in vivo
Bile salt export pump = Bile salt export pump (Homo sapiens, UniProt O95342); assay: Inhibition of human BSEP overexpressed in Sf9 cell membrane vesicles assessed as uptake of [3H]-taurocholate in presence of ATP measured after 15 to 20 mins by membrane vesicle transport assay; assay type: ADME, cell-based
[12] = Ratio of drug concentration at steady state patient with chronic phase CML at 70 to 90 mg, po BID after 12 hrs to IC50 for human MRP4 overexpressed in Sf9 insect cells; assay type: ADME, organism-based; settings: in vivo
[13] = Ratio of drug concentration at steady state in patient with advanced phase CML and Ph+ ALL at 100 mg, po BID after 12 hrs to IC50 for human MRP4 overexpressed in Sf9 insect cells; assay type: ADME, organism-based; settings: in vivo
[14] = Ratio of drug concentration at steady state in patient with chronic phase CML at 70 to 90 mg, po BID after 12 hrs to IC50 for human BSEP overexpressed in Sf9 insect cells; assay type: ADME, organism-based; settings: in vivo
[15] = AUC in patient with chronic phase CML at 70 to 90 mg, po BID after 12 hrs; assay type: ADME, organism-based; settings: human, in vivo
[16] = Drug concentration at steady state in patient with advanced phase CML and Ph+ ALL at 100 mg, po BID after 12 hrs; assay type: ADME, organism-based; settings: human, in vivo, read-out: Css
[17] = AUC in human at 5 to 10 mg, po after 24 hrs; assay type: ADME, organism-based; settings: in vivo
Homo sapiens = assay: Drug concentration at steady state in human at 5 to 10 mg, po after 24 hrs; settings: in vivo
[18] = Drug concentration at steady state in human at 3 mg, po QD after 24 hrs; assay type: ADME, organism-based; settings: in vivo, read-out: Css
[19] = AUC in human at 3 mg, po QD after 24 hrs; assay type: ADME, organism-based; parameters: time < 24 hr, dose 3 mg, route oral; settings: in vivo
[20] = Ratio of drug concentration at steady state in human at 3 mg, po after 24 hrs to IC50 for human BSEP overexpressed in Sf9 insect cells; assay type: ADME, organism-based; settings: in vivo
[21] = Ratio of drug concentration at steady state in human at 3 mg, po after 24 hrs to IC50 for human MRP4 overexpressed in Sf9 insect cells; assay type: ADME, organism-based; settings: in vivo
[22] = Ratio of drug concentration at steady state in human at 60 to 120 mg, po QD after 24 hrs to IC50 for human MRP4 overexpressed in Sf9 insect cells; assay type: ADME, organism-based; settings: in vivo
[23] = Ratio of drug concentration at steady state in human at 60 to 120 mg, po QD after 24 hrs to IC50 for human BSEP overexpressed in Sf9 insect cells; assay type: ADME, organism-based; settings: in vivo
[24] = AUC in human at 60 to 120 mg, po QD after 24 hrs; assay type: ADME, organism-based; settings: in vivo
[25] = Drug concentration at steady state in human at 60 to 120 mg, po QD after 24 hrs; assay type: ADME, organism-based; settings: in vivo, read-out: Css

Chain of ATP-binding cassette sub-family C member 2 (Q92887 whole entry): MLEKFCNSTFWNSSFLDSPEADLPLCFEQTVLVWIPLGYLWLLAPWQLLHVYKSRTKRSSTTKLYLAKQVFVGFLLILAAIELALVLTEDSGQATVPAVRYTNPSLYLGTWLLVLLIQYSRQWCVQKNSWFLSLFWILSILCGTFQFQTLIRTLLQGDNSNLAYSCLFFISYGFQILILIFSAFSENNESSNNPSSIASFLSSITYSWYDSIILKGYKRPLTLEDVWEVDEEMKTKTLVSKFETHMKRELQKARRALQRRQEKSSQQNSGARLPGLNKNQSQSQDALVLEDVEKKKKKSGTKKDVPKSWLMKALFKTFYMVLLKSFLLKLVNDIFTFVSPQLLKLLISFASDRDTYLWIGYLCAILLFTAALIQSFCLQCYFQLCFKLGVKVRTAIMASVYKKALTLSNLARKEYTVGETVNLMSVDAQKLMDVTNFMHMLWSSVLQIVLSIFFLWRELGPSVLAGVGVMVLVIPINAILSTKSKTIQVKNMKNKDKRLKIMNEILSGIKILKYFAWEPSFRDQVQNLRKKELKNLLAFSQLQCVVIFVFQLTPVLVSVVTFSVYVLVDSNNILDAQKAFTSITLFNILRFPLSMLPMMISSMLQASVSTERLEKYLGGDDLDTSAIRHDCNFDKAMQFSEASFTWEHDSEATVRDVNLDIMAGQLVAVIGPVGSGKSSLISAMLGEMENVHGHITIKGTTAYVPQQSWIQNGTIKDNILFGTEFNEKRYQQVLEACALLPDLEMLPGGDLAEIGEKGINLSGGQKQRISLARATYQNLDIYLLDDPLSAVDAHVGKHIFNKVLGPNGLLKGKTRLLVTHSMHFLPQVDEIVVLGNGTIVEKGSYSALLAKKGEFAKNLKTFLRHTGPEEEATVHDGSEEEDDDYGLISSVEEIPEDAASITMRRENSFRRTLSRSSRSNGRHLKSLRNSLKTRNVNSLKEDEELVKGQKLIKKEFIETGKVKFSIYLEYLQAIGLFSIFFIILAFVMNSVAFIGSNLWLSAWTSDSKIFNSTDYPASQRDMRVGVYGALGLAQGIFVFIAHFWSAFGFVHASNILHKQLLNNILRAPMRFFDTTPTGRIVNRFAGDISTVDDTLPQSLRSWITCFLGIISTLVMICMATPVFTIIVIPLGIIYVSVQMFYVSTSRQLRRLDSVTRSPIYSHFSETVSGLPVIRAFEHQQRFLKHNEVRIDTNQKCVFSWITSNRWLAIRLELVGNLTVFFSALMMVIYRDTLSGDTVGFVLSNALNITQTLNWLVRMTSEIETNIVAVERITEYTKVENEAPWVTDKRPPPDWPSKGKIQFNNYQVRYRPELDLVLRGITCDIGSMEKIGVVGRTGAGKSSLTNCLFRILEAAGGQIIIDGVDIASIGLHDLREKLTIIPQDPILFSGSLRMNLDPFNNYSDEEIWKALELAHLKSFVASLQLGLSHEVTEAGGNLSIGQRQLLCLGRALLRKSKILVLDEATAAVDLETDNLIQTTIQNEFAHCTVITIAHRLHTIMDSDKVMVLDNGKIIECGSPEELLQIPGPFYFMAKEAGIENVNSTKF
Chain of ATP-binding cassette sub-family C member 3 (O15438 whole entry): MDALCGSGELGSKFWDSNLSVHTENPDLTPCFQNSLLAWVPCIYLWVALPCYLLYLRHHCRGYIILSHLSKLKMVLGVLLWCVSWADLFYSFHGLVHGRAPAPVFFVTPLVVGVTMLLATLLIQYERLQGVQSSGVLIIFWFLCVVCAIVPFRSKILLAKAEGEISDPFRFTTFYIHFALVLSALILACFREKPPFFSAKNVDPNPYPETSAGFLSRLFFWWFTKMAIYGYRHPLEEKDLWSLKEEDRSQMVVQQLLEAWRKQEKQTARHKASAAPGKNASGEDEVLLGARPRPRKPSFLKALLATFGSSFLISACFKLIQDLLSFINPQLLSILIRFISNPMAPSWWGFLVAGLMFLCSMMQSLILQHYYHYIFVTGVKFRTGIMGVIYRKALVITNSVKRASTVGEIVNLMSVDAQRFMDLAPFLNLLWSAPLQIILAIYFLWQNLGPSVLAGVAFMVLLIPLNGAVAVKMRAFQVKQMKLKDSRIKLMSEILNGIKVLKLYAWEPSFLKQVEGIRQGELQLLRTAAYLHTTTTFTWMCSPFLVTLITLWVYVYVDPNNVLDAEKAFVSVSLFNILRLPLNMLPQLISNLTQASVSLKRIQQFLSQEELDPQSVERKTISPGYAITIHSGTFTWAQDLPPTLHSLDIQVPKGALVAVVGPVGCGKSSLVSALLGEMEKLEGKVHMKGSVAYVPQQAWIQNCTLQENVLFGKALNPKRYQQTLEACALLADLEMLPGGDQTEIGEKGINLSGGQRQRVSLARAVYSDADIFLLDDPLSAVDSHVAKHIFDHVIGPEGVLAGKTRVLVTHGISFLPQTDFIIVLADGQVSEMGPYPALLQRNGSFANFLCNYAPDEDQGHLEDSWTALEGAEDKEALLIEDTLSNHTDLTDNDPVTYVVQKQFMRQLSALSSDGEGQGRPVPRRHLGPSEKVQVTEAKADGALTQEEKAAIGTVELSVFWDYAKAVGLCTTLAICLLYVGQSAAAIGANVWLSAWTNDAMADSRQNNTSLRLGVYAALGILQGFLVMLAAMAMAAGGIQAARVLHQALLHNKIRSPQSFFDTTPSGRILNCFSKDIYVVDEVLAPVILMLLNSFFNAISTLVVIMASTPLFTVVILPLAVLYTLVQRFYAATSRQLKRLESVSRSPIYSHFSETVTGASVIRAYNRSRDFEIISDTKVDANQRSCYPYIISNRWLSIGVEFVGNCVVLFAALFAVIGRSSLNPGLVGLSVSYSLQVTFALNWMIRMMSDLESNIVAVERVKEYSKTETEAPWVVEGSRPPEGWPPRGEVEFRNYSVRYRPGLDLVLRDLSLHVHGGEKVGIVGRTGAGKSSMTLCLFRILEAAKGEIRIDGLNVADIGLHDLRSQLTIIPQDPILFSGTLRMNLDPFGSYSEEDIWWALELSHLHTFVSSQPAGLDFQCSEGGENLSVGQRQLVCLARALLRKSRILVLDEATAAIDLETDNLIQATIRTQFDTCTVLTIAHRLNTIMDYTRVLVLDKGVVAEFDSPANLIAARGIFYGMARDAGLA
Chain of Bile salt export pump (O95342 whole entry): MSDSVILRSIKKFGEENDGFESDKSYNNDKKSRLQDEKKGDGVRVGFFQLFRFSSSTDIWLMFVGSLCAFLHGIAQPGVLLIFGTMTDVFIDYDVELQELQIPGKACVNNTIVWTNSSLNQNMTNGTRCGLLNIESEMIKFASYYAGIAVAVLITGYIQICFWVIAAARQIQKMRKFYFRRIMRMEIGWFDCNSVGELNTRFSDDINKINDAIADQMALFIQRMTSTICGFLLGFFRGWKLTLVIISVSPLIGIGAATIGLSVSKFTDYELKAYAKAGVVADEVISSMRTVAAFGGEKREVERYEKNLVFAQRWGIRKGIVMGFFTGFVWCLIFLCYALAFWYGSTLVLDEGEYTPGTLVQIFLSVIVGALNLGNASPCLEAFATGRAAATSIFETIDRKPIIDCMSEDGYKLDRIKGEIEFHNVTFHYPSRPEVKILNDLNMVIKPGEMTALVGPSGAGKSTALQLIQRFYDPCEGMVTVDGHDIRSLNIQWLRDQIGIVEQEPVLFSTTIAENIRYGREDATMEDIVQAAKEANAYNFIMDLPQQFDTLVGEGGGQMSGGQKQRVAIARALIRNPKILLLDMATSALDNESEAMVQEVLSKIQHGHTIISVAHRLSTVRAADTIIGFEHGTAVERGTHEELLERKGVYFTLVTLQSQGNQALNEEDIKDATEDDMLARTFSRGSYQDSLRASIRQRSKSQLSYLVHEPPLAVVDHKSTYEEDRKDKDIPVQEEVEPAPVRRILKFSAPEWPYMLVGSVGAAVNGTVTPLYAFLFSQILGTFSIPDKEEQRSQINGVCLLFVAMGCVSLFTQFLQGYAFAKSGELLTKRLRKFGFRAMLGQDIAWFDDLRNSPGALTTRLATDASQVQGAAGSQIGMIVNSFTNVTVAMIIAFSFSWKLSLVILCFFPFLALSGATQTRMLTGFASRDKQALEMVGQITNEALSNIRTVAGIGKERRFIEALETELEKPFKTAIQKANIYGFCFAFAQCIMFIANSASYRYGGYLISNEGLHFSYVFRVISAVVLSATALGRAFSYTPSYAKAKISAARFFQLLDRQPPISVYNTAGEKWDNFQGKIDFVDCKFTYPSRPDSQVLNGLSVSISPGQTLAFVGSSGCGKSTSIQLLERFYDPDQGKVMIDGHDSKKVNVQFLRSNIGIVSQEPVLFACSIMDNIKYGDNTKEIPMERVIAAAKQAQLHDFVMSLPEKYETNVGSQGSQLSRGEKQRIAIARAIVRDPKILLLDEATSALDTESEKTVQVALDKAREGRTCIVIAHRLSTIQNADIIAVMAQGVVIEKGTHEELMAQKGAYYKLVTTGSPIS

CCCc1nc2c(C)cc(-c3nc4ccccc4n3C)cc2n1Cc1ccc(-c2ccccc2C(=O)O)cc1
Ratio [1]: 0.009 | Ratio [2]: 0.002 | Ratio [3]: 0.004 | pIC50 [4]: 4.22 | pIC50 [5]: < 3.88 | concentration at 24 h [6]: 149 nM | AUC at 24 h [7]: 3.57 µM·h | pIC50 [8]: 4.44

Cc1nc(Nc2ncc(C(=O)Nc3c(C)cccc3Cl)s2)cc(N2CCN(CCO)CC2)n1.O [DASATINIB]
Ratio [9]: 0.004 | concentration at 12 h [10]: 52 nM | AUC at 12 h [11]: 0.624 µM·h | pIC50 (Bile salt export pump): 4.88 | pIC50 [4]: < 3.88 | pIC50 [5]: < 3.88 | Ratio [12]: 0.002 | Ratio [13]: 0.002 | Ratio [14]: 0.004 | AUC at 12 h [15]: 0.624 µM·h | concentration at 12 h [16]: 52 nM | pIC50 [8]: 4.56

COc1cc2c(cc1OC)C(=O)C(CC1CCN(Cc3ccccc3)CC1)C2 (centres undefined) [DONEPEZIL]
pIC50 [4]: < 3.88 | AUC at 24 h [17]: 9.76 µM·h | pIC50 [5]: < 3.88 | Css (Homo sapiens): 406 nM | pIC50 [8]: 4.14

C[C@]12CCC(=O)C=C1[C@@H]1C[C@@H]1[C@H]1[C@@H]3[C@@H]4C[C@@H]4[C@@]4(CCC(=O)O4)[C@@]3(C)CC[C@@H]12 [DROSPIRENONE]
pIC50 (Bile salt export pump): 4.79 | pIC50 [4]: < 3.88 | concentration at 24 h [18]: 91 nM | AUC at 24 h [19]: 2.18 µM·h | Ratio [20]: 0.006 | Ratio [21]: 0.002 | pIC50 [8]: 4.42

COC(=O)C1=C(C)NC(C)=C(C(=O)OCCN(C)Cc2ccccc2)C1c1cccc([N+](=O)[O-])c1 (centres undefined) [NICARDIPINE]
Ratio [22]: 0 | pIC50 [4]: < 3.88 | pIC50 [5]: < 3.88 | Ratio [23]: 0.004 | AUC at 24 h [24]: 0.72 µM·h | concentration at 24 h [25]: 30 nM | pIC50 [8]: 4.06
